Results taken from US9642886B2, “Plant based formulation for the prevention and management of metabolic syndrome by its adiponectin enhancing property” (SRM UNIVERSITY, priority 2014, dated 2017).

Test system: Metabolic Syndrome cases
Assay: Clinical study in Metabolic Syndrome cases
Assay type: in vivo, human
Method: The study population consisted of 128 diagnosed Metabolic Syndrome cases (76 Men and 52 Women), aged 52.81±9.68 years at study entry. The cases were diagnosed as per criteria given by WHO for classification and diagnosis of Metabolic Syndrome. After preliminary screening the subjects showing association with 3 or more than 3 above factors were selected. The clinical trial was conducted in three groups— Group-I: 36 cases were treated with Orlistat (120 mg twice a day after each meals). Group-II: 44 cases were treated with Ayurvedic formulation. Group-III: 48 cases were administered Orlistat along with Ayurvedic formulation. […] Lipid profile including triglyceride was estimated by standard laboratory kits. TNF-[…], interleukin-6 was measured by ELISA kit, adiponectin by radioimmunoassay kit. CRP by kit for quantitative nephelometric determination of CRP in human serum or plasma by Turbox/Turbox analyzer and ELISA activity assay kit for Leptin level. Subjects suffering from any other disease known to affect the study parameters were excluded from the series. Upon recruitment all subjects gave informed written consent.

**Q.** How did the Adiponectin (After 6 months) turn out when CCCCCCCCCCC[C@@H](C[C@@H]1OC(=O)[C@H]1CCCCCC)OC(=O)[C@H](CC(C)C)NC=O [Conventional drug, Orlistat] was run?
**A.** 10.04 ± 2.84 µg/mL

**Q.** And the “Apolipo (B)” value (After 6 months)?
**A.** 156.41 ± 17.11 mg/dL

**Q.** And the Diastolic blood pressure (After 6 months)?
**A.** 84.42 ± 1.98 mmHg

**Q.** What about the Endotheline (After 6 months) of the same compound?
**A.** 875.42 ± 171.36 pg/mL

**Q.** What about the Fasting blood glucose (After 6 months) of the same compound?
**A.** 99.43 ± 4.36 mg/dL

**Q.** What about the HDL-c (After 6 months) of the same compound?
**A.** 50.75 ± 3.12 mg/dL

**Q.** And the Interleukin-6 (After 6 months)?
**A.** 1.89 ± 0.75 pg/mL

**Q.** And the LDL-c (After 6 months)?
**A.** 109.42 ± 8.44 mg/dL

**Q.** What about the Leptin (After 6 months) of the same compound?
**A.** 26.44 ± 3.28 µg/L

**Q.** And the Postprandial blood glucose (After 6 months)?
**A.** 186.90 ± 17.42 mg/dL

**Q.** What about the Systolic blood pressure (After 6 months) of the same compound?
**A.** 126.90 ± 4.06 mmHg

**Q.** What about the TNF-α (After 6 months) of the same compound?
**A.** 324.85 ± 57.86 pg/mL

**Q.** What about the Total cholesterol (After 6 months) of the same compound?
**A.** 208.91 ± 27.97 mg/dL

**Q.** And the Triglycerides (After 6 months)?
**A.** 224.56 ± 37.90 mg/dL

**Q.** And the “hs CRP” value (After 6 months)?
**A.** 3.48 ± 0.89 mg/L

**Q.** And the “Body Mass Index (BMI)” value (Female, After 3 months)?
**A.** 29.68 ± 2.04

**Q.** What about the “Body Mass Index (BMI)” value (Female, After 6 months) of the same compound?
**A.** 28.45 ± 1.68

**Q.** What about the “Body Mass Index (BMI)” value (Female, Initial) of the same compound?
**A.** 31.14 ± 1.88

**Q.** What about the Adiponectin (Initial) of the same compound?
**A.** 7.82 ± 1.64 µg/mL

**Q.** And the “Apolipo (B)” value (Initial)?
**A.** 193.88 ± 31.64 mg/dL

**Q.** What about the Diastolic blood pressure (Initial) of the same compound?
**A.** 88.35 ± 2.06 mmHg

**Q.** What about the Endotheline (Initial) of the same compound?
**A.** 1139.73 ± 211.54 pg/mL

**Q.** And the Fasting blood glucose (Initial)?
**A.** 133.90 ± 8.82 mg/dL

**Q.** And the HDL-c (Initial)?
**A.** 43.84 ± 2.42 mg/dL

**Q.** What about the Interleukin-6 (Initial) of the same compound?
**A.** 2.35 ± 0.84 pg/mL

**Q.** What about the LDL-c (Initial) of the same compound?
**A.** 143.71 ± 9.13 mg/dL

**Q.** And the Leptin (Initial)?
**A.** 33.41 ± 4.35 µg/L

**Q.** What about the Postprandial blood glucose (Initial) of the same compound?
**A.** 224.81 ± 20.14 mg/dL

**Q.** And the Systolic blood pressure (Initial)?
**A.** 137.82 ± 5.15 mmHg

**Q.** And the TNF-α (Initial)?
**A.** 579.84 ± 68.36 pg/mL

**Q.** And the Total cholesterol (Initial)?
**A.** 243.84 ± 41.52 mg/dL

**Q.** What about the Triglycerides (Initial) of the same compound?
**A.** 371.90 ± 43.88 mg/dL

**Q.** And the “hs CRP” value (Initial)?
**A.** 5.31 ± 1.04 mg/L

**Q.** And the “Body Mass Index (BMI)” value (Male, After 3 months)?
**A.** 28.82 ± 1.90

**Q.** What about the “Body Mass Index (BMI)” value (Male, After 6 months) of the same compound?
**A.** 27.16 ± 1.35

**Q.** And the “Body Mass Index (BMI)” value (Male, Initial)?
**A.** 30.75 ± 2.17
